Laboratory results: patent US20230074545A1, “TREATMENT OF CANCER WITH CDK12/13 INHIBITORS” (Kinnate Biopharma Inc., priority 2019, published 2023)

Legend:
Assay in all cases: Radiometric kinase panel
Assay type in all cases: biochemical
IGF1R = molecular target: T1, IGF1R (Homo sapiens, UniProt P08069)
T1 construct: either as full-length or enzymatically active fragments; purchased ProQinase GmbH (Reaction Biology); host or cells: Sf9 insect cells or E. coli
Procedure, shortened: (§1)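 Activity was measured radiometrically from [gamma-33P]-ATP incorporation into substrate. The kinases were recombinant human GST- or His-tagged proteins, full-length or active fragments, expressed in Sf9 or E. coli. Compound in 10% DMSO was added before the enzyme/substrate mix, which started the reaction.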

NLK = molecular target: T2, NLK (Homo sapiens, UniProt Q9UBE8)
T2 construct: either as full-length or enzymatically active fragments; purchased ProQinase GmbH (Reaction Biology)
Procedure, shortened: as §1

CDK5/p25NCK = molecular target: T3, CDK5/p25NCK (Homo sapiens, UniProt Q00535)
T3 construct: either as full-length or enzymatically active fragments; purchased ProQinase GmbH (Reaction Biology)
Procedure, shortened: as §1

DAPK1 = molecular target: T4, DAPK1 (Homo sapiens, UniProt P53355)
T4 construct: either as full-length or enzymatically active fragments; purchased ProQinase GmbH (Reaction Biology); host or cells: Sf9 insect cells or E. coli
Procedure, shortened: as §1

AKT1 = molecular target: T5, AKT1 (Homo sapiens, UniProt P31749)
T5 construct: either as full-length or enzymatically active fragments; purchased ProQinase GmbH (Reaction Biology)
Procedure, shortened: as §1

BMPR1B = molecular target: T6, BMPR1B (Homo sapiens, UniProt O00238)
T6 construct: either as full-length or enzymatically active fragments; purchased ProQinase GmbH (Reaction Biology)
Procedure, shortened: as §1

DAPK3 = molecular target: T7, DAPK3 (Homo sapiens, UniProt O43293)
T7 construct: purchased ProQinase GmbH (Reaction Biology)
Procedure, shortened: as §1

AMPKalpha1 = molecular target: T8, AMPKalpha1 (Homo sapiens, UniProt Q13131)
T8 construct: either as full-length or enzymatically active fragments; purchased ProQinase GmbH (Reaction Biology)
Procedure, shortened: as §1

LCK = molecular target: T9, LCK (Homo sapiens, UniProt P06239)
T9 construct: either as full-length or enzymatically active fragments; purchased ProQinase GmbH (Reaction Biology)
Procedure, shortened: as §1

TRKA = molecular target: T10, TRKA (Homo sapiens, UniProt P04629)
T10 construct: either as full-length or enzymatically active fragments; purchased ProQinase GmbH (Reaction Biology)
Procedure, shortened: as §1

MKNK2 = molecular target: T11, MKNK2 (Homo sapiens, UniProt Q9HBH9)
T11 construct: either as full-length or enzymatically active fragments; purchased ProQinase GmbH (Reaction Biology)
Procedure, shortened: as §1

MASTL = molecular target: T12, MASTL (Homo sapiens, UniProt Q96GX5)
T12 construct: either as full-length or enzymatically active fragments; purchased ProQinase GmbH (Reaction Biology); host or cells: Sf9 insect cells or E. coli (not specified per kinase)
Procedure, shortened: as §1

BRSK1 = molecular target: T13, BRSK1 (Homo sapiens, UniProt Q8TDC3)
T13 construct: either as full-length or enzymatically active fragments; purchased ProQinase GmbH (Reaction Biology)
Procedure, shortened: as §1

CDK1/CycB1 = molecular target: T14, CDK1/CycB1 (Homo sapiens, UniProt P06493)
T14 construct: either as full-length or enzymatically active fragments; purchased ProQinase GmbH (Reaction Biology); host or cells: Sf9 insect cells or E. coli
Procedure, shortened: as §1

MLK4 = molecular target: T15, MLK4 (Homo sapiens, UniProt Q5TCX8)
T15 construct: either as full-length or enzymatically active fragments; purchased ProQinase GmbH (Reaction Biology); host or cells: Sf9 insect cells or E. coli (not specified per kinase)
Procedure, shortened: as §1

FAK = molecular target: T16, FAK (Homo sapiens, UniProt Q05397)
T16 construct: either as full-length or enzymatically active fragments; purchased ProQinase GmbH (Reaction Biology); host or cells: Sf9 insect cells or E. coli
Procedure, shortened: as §1

CLK2 = molecular target: T17, CLK2 (Homo sapiens, UniProt P49760)
T17 construct: purchased ProQinase GmbH (Reaction Biology)
Procedure, shortened: as §1

CK1gamma2 = molecular target: T18, CK1gamma2 (Homo sapiens, UniProt P78368)
T18 construct: purchased ProQinase GmbH (Reaction Biology)
Procedure, shortened: as §1

BMX = molecular target: T19, BMX (Homo sapiens, UniProt P51813)
T19 construct: either as full-length or enzymatically active fragments; purchased ProQinase GmbH (Reaction Biology)
Procedure, shortened: as §1

CDK3/CycE1 = molecular target: T20, CDK3/CycE1 (Homo sapiens, UniProt Q00526)
T20 construct: either as full-length or enzymatically active fragments; purchased ProQinase GmbH (Reaction Biology)
Procedure, shortened: as §1

EPHA8 = molecular target: T21, EPHA8 (Homo sapiens, UniProt P29322)
T21 construct: either as full-length or enzymatically active fragments; purchased ProQinase GmbH (Reaction Biology); host or cells: Sf9 insect cells or E. coli (not specified per kinase)
Procedure, shortened: as §1

T20 sequence (Q00526 whole entry, the tested form may be a part): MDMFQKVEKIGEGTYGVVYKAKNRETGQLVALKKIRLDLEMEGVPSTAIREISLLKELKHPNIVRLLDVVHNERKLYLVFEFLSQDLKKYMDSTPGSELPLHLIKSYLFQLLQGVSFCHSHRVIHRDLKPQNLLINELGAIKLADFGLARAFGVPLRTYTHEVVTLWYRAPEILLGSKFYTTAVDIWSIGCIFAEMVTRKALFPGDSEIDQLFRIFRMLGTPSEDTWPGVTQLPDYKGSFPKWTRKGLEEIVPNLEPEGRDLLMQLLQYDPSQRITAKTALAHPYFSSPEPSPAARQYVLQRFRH
T20 sequence (P24864 whole entry partner, the tested form may be a part): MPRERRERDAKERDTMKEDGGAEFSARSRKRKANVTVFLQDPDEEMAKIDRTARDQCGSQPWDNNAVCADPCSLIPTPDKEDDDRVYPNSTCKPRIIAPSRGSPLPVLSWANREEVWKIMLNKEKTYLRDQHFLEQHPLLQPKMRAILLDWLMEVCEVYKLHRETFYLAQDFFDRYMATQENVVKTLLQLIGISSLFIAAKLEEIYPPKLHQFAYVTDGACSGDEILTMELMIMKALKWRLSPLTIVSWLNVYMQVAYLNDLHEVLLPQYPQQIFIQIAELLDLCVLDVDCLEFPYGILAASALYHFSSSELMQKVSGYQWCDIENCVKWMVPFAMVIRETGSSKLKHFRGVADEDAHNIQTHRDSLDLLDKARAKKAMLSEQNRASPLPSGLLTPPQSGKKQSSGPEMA
T21 sequence (P29322 28-1005): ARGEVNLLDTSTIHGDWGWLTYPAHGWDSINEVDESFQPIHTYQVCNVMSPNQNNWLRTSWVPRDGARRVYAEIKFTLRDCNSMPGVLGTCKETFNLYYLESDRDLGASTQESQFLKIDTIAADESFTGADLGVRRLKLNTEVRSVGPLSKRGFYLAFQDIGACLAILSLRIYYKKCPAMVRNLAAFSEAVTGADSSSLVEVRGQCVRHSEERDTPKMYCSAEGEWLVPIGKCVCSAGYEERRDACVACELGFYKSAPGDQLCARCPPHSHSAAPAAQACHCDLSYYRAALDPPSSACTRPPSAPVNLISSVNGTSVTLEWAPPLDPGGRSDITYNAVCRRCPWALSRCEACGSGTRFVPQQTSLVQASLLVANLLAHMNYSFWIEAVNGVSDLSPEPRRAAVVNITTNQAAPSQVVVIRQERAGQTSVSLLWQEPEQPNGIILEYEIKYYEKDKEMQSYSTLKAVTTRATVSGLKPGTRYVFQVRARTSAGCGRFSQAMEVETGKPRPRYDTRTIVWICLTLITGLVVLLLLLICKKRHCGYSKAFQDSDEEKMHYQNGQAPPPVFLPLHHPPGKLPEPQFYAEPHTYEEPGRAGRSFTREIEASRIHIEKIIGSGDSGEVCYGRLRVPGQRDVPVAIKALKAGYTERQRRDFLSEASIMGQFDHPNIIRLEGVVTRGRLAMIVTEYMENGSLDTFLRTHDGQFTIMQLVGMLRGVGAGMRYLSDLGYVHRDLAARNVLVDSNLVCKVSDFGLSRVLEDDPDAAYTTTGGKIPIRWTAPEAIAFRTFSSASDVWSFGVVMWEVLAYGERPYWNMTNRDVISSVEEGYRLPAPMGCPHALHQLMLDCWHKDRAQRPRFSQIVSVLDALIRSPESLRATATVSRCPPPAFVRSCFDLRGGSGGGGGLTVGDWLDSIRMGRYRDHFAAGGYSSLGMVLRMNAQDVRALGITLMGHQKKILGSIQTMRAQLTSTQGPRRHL
T6 sequence (O00238 14-502): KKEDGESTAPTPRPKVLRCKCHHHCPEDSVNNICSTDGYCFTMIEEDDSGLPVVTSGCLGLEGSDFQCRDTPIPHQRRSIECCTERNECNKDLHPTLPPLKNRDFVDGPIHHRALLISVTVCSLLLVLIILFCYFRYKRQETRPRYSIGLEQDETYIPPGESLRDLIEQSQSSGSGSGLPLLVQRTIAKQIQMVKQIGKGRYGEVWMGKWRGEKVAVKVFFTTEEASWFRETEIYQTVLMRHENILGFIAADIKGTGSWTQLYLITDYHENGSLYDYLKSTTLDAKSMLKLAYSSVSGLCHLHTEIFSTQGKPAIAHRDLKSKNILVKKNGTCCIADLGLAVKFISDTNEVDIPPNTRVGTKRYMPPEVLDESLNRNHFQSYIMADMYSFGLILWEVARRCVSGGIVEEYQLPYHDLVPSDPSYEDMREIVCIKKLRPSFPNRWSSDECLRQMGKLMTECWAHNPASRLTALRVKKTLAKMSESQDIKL
T4 sequence (P53355 whole entry, the tested form may be a part): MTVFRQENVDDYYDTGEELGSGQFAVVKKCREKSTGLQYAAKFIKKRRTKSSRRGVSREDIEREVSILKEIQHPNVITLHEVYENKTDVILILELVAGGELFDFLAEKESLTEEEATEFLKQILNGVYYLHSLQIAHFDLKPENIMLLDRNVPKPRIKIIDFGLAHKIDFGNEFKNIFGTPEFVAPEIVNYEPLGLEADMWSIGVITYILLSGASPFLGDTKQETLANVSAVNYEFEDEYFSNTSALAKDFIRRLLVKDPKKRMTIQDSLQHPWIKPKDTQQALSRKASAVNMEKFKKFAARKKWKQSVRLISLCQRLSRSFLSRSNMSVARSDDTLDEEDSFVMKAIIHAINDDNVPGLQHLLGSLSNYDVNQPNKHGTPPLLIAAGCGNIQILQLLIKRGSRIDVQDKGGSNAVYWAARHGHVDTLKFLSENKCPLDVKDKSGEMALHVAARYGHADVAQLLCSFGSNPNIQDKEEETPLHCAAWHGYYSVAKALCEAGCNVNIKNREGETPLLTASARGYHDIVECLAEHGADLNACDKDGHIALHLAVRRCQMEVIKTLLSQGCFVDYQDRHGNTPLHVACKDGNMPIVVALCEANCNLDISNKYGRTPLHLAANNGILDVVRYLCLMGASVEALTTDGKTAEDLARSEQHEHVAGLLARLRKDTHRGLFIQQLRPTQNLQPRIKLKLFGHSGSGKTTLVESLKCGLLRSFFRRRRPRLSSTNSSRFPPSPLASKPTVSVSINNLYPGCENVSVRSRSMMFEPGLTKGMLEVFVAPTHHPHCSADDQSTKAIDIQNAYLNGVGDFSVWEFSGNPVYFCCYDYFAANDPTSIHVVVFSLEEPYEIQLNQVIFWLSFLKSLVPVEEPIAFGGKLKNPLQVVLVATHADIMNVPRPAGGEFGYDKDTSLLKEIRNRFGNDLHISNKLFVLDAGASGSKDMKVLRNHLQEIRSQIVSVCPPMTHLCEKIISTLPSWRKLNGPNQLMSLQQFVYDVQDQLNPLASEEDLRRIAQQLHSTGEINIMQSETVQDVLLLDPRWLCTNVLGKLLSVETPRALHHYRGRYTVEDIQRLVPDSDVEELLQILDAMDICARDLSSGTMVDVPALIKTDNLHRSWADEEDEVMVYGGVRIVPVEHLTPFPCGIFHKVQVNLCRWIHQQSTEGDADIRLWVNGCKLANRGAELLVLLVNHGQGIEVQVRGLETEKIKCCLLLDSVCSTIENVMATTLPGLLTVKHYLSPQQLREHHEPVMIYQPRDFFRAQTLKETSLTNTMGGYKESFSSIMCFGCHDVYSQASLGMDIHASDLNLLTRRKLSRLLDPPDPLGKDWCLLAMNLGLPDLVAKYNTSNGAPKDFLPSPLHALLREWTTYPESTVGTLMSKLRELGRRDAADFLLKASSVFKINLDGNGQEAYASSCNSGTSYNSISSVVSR
T15 sequence (Q5TCX8 whole entry, the tested form may be a part): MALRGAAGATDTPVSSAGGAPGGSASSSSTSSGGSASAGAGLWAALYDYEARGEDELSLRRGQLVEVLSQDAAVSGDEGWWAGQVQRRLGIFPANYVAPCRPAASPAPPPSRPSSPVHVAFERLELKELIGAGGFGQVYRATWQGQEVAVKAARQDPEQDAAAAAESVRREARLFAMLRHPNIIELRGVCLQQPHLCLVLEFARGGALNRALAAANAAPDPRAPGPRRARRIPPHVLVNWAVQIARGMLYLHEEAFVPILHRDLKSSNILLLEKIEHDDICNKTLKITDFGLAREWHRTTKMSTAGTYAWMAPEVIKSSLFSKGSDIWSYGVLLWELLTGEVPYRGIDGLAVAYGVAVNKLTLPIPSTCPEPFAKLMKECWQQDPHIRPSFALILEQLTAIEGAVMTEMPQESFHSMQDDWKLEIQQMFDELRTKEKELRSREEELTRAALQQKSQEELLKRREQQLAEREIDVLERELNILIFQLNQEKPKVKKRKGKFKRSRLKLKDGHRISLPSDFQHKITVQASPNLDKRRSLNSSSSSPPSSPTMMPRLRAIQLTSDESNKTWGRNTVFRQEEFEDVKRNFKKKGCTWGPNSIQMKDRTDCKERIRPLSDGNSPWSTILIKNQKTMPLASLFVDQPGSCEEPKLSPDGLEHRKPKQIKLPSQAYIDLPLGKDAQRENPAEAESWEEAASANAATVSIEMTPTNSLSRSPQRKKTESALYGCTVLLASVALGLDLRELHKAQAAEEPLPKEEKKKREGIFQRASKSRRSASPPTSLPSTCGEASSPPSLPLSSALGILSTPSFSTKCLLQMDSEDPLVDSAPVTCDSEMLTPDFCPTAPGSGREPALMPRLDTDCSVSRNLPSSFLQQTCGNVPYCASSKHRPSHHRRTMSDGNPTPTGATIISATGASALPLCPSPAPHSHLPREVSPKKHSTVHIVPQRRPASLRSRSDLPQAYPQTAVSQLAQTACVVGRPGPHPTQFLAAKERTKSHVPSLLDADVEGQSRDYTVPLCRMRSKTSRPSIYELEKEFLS
T18 sequence (P78368 whole entry): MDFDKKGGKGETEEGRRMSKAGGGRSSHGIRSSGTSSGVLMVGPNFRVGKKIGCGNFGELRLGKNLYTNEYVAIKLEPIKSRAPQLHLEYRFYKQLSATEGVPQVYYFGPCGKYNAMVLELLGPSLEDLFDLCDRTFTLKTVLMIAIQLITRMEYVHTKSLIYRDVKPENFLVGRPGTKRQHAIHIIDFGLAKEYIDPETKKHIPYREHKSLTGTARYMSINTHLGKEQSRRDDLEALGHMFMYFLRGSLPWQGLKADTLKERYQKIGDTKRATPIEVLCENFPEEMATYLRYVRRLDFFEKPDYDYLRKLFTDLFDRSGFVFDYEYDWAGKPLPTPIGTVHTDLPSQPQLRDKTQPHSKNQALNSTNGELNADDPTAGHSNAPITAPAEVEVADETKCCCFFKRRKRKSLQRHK

## C=CC(=O)Nc1ccc(C(=O)N2CC[C@@H](Nc3ncc(C#N)cn3)C2)cc1 [Compound 4, (R)-N-(4-(3-((5-cyanopyrimidin-2-yl)amino)pyrrolidine-1-carbonyl)phenyl)acrylamide]
IGF1R
  inhibition at 1 µM: -23%
NLK
  inhibition at 1 µM: 4%
CDK5/p25NCK
  inhibition at 1 µM: 3%
DAPK1
  inhibition at 1 µM: -15%
AKT1
  inhibition at 1 µM: 2%
BMPR1B
  inhibition at 1 µM: 6%
DAPK3
  inhibition at 1 µM: 0%
AMPKalpha1
  inhibition at 1 µM: 2%
LCK
  inhibition at 1 µM: -3%
TRKA
  inhibition at 1 µM: -7%
MKNK2
  inhibition at 1 µM: 4%
MASTL
  inhibition at 1 µM: 11%
BRSK1
  inhibition at 1 µM: -4%
CDK1/CycB1
  inhibition at 1 µM: 13%
MLK4
  inhibition at 1 µM: 9%
FAK
  inhibition at 1 µM: -15%
CLK2
  inhibition at 1 µM: -2%
CK1gamma2
  inhibition at 1 µM: -1%
BMX
  inhibition at 1 µM: -4%
CDK3/CycE1
  inhibition at 1 µM: 25%
EPHA8
  inhibition at 1 µM: 9%
